ChEMBL document CHEMBL1151308, “Acanthosterol sulfates A-J: ten new antifungal steroidal sulfates from a marine sponge Acanthodendrilla sp” (1998)
The source made the active and inactive calls. No cut-off for these calls is given here.

Assays:
Saccharomyces cerevisiae [1] = assay: Antifungal activity against Saccharomyces cerevisiae STX338-2C mutant at 0.1 mg/disk; format: functional
Saccharomyces cerevisiae [2] = assay: Antifungal activity against Saccharomyces cerevisiae GT160-45c at 0.1 mg/disk; format: functional, organism-based
Saccharomyces cerevisiae [3] = assay: Antifungal activity against Saccharomyces cerevisiae A364A at 0.1 mg/disk; format: functional
Saccharomyces cerevisiae [4] = assay: Antifungal activity against Saccharomyces cerevisiae 14028g mutant at 0.1 mg/disk; format: functional
Saccharomyces cerevisiae [5] = assay: Antifungal activity against Saccharomyces cerevisiae RAY-3Aa at 0.1 mg/disk; format: functional, organism-based

Structure (SMILES) | inhibition zone (IZ) (Saccharomyces cerevisiae [1]) [mm] | Activity (Saccharomyces cerevisiae [2]) | inhibition zone (IZ) (Saccharomyces cerevisiae [3]) [mm] | inhibition zone (IZ) (Saccharomyces cerevisiae [4]) [mm] | Activity (Saccharomyces cerevisiae [5])
CC(=O)O[C@@H]1C[C@]2(C)[C@H]3CC[C@]4(C)[C@@H]([C@H](C)[C@@H]5O[C@H]5[C@H](C)C(C)C)CC[C@H]4C3=CC[C@H]2[C@H](OS(=O)(=O)[O-])[C@H]1O.[Na+] [ACANTHOSTEROL SULFATE I] | 8 | inactive | 7 | 9 | inactive
CC(=O)O[C@@H]1C[C@]2(C)[C@H]3CC[C@]4(C)[C@@H]([C@H](C)[C@@H]5O[C@H]5[C@@H](C)C(C)C)CC[C@H]4C3=CC[C@H]2[C@H](OS(=O)(=O)[O-])[C@H]1O.[Na+] [ACANTHOSTEROL SULFATE J] | 10 | inactive | 11 | 11 | inactive
